One test has as its target HDAC1 (Homo sapiens (Human), UniProt Q13547). The conditions noted are these: read-out: HDAC1 IC50.
For the next test, the target named is HDAC5 (Homo sapiens (Human), UniProt Q9UQL6). To be noted: read-out: HDAC5 IC50.
The target of the next test is HDAC8 (Homo sapiens (Human), UniProt Q9BY41). The conditions noted are these: read-out: HDAC8 IC50.

Molecules are shown by their SMILES.

Chain of HDAC5 (Q9UQL6 656-1122): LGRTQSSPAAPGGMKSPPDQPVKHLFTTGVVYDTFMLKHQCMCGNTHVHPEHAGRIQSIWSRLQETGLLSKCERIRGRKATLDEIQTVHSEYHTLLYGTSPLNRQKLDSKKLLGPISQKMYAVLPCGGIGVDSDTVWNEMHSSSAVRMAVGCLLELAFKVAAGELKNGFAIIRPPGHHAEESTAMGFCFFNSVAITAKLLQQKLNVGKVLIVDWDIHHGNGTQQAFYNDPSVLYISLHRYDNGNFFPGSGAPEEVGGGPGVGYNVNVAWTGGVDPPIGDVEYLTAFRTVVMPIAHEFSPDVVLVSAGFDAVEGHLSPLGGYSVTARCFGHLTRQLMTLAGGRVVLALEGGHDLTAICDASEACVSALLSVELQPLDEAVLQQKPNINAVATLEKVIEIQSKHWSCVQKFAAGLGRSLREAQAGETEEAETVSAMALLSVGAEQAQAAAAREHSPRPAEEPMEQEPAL
Chain of HDAC8 (Q9BY41 whole entry): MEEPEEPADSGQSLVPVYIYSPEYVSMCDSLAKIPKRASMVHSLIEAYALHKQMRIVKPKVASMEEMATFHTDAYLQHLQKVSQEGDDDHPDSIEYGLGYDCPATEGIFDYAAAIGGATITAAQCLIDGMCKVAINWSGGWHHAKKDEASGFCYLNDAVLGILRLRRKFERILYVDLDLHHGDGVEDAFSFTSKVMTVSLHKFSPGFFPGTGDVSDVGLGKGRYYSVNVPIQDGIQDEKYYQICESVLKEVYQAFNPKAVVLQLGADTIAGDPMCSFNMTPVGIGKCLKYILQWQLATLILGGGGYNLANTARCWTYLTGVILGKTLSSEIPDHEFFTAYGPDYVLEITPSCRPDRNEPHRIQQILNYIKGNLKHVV
Chain of HDAC1 (Q13547 whole entry): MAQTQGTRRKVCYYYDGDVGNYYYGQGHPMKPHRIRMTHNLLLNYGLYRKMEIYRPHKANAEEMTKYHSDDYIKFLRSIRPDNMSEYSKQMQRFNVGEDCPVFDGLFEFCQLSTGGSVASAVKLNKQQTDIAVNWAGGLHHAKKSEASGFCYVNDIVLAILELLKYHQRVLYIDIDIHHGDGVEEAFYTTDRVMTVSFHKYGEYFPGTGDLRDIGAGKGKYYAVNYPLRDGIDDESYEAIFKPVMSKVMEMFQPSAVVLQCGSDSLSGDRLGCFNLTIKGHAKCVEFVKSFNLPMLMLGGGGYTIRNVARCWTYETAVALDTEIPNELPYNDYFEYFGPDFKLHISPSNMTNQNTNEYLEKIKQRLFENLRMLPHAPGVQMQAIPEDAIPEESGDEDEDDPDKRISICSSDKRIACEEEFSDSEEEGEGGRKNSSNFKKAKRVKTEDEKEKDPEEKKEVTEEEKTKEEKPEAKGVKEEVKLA

In the case of `O=C(C1CCOCC1)N(Cc1ccc(-c2noc(C(F)(F)F)n2)cn1)c1cccc(F)c1` [Example 60, N-(3-fluorophenyl)-N-((5-(5-(trifluoromethyl)-1,2,4-oxadiazol-3-yl)pyridin-2-yl)methyl)tetrahydro-2H-pyran-4-carboxamide], the IC50 was determined as 0.23 µM at HDAC1, 0.65 µM on HDAC5 and 2.1 µM on HDAC8.
In the same order, the values of `O=C1CCC(c2ccccc2)N1c1ccc(-c2noc(C(F)(F)F)n2)cc1F` (stereo not drawn) [Example 42, 1-(2-fluoro-4-(5-(trifluoromethyl)-1,2,4-oxadiazol-3-yl)phenyl)-5-phenylpyrrolidin-2-one] are 0.53 µM, 0.027 µM and 1.4 µM.
In the same order, the values of `CC(C)(C)OC(=O)[C@@H]1CCC(=O)N1c1ccc(-c2noc(C(F)(F)F)n2)c(F)c1F` [Example 124, tert-butyl (S)-1-(2,3-difluoro-4-(5-(trifluoromethyl)-1,2,4-oxadiazol-3-yl)phenyl)-5-oxopyrrolidine-2-carboxylate] are 1.3 µM, 0.017 µM and 7.4 µM.
For `Fc1cc(COc2cc(C(F)F)ncn2)ccc1-c1noc(C(F)(F)F)n1` [Example 242, 4-(difluoromethyl)-6-({3-fluoro-4-[5-(trifluoromethyl)-1,2,4-oxadiazol-3-yl]phenyl}methoxy)pyrimidine], in that order: 2.9 µM, 0.11 µM and 1.7 µM.
For the compound `COCc1cccc(CCOc2cc(-c3noc(C(F)(F)F)n3)ccn2)c1` [Example 476, 2-{2-[3-(methoxymethyl)phenyl]ethoxy}-4-[5-(trifluoromethyl)-1,2,4-oxadiazol-3-yl]pyridine], the values for the half-maximal inhibitory concentration (IC50) on HDAC1, at HDAC5 and on HDAC8 were 1.9 µM, 0.78 µM and 3 µM, respectively.
For `O=C1COC[C@@H](c2ccccc2)N1c1ccc(-c2noc(C(F)(F)F)n2)c(F)c1` [Example 2, (R)-4-(3-Fluoro-4-(5-(trifluoromethyl)-1,2,4-oxadiazol-3-yl)phenyl)-5-phenylmorpholin-3-one], in that order: 0.48 µM, 0.018 µM and 4.6 µM.
For `Cn1cccc(OCc2ccc(-c3noc(C(F)(F)F)n3)c(F)c2)c1=O` [Example 233, 3-({3-fluoro-4-[5-(trifluoromethyl)-1,2,4-oxadiazol-3-yl]phenyl}methoxy)-1-methylpyridin-2(1H)-one], in that order: 1.6 µM, 0.17 µM and 2.2 µM.
For `Fc1cc(COc2cccc3[nH]nnc23)ccc1-c1noc(C(F)(F)F)n1` [Example 227, 4-({3-fluoro-4-[5-(trifluoromethyl)-1,2,4-oxadiazol-3-yl]phenyl}methoxy)-1H-benzotriazole], the IC50 on HDAC1 turned out to be 1.5 µM; on HDAC5 it was 0.065 µM; on HDAC8, 0.73 µM.
Take `O=C(Cn1cncn1)N(Cc1ccc(-c2noc(C(F)(F)F)n2)cc1)c1cccc(C(F)(F)F)c1` [Example 68, 2-(1H-1,2,4-triazol-1-yl)-N-(4-(5-(trifluoromethyl)-1,2,4-oxadiazol-3-yl)benzyl)-N-(3-(trifluoromethyl)phenyl)acetamide]: the figures for the IC50 at HDAC1, on HDAC5 and at HDAC8 were 0.69 µM, 0.5 µM and 2 µM, respectively.
For `Cc1cc(C)nc(COc2nccc(-c3noc(C(F)(F)F)n3)c2Cl)n1` [Example 186, 3-(3-Chloro-2-((4,6-dimethylpyrimidin-2-yl)methoxy)pyridin-4-yl)-5-(trifluoromethyl)-1,2,4-oxadiazole], in that order: 8.1 µM, 0.85 µM and 3.9 µM.
In the same order, the values of `Fc1cc(COc2cc[nH]n2)ccc1-c1noc(C(F)(F)F)n1` [Example 232, 3-(2-fluoro-4-{[(1H-pyrazol-3-yl)oxy]methyl}phenyl)-5-(trifluoromethyl)-1,2,4-oxadiazole] are 3 µM, 0.067 µM and 1.3 µM.
In the same order, the values of `O=C1CCC(c2ccccc2Cl)N1c1ccc(-c2noc(C(F)(F)F)n2)cc1F` (stereo not drawn) [Example 117, 5-(2-chlorophenyl)-1-(2-fluoro-4-(5-(trifluoromethyl)-1,2,4-oxadiazol-3-yl)phenyl)pyrrolidin-2-one] are 1.8 µM, 0.14 µM and 3.1 µM.
Take `O=C(C1CCS(=O)(=O)CC1)N(Cc1ccc(-c2noc(C(F)(F)F)n2)nn1)c1cccc(C(F)(F)F)c1` [Example 173, N-((6-(5-(Trifluoromethyl)-1,2,4-oxadiazol-3-yl)pyridazin-3-yl)methyl)-N′-(3-(trifluoromethyl)phenyl)tetrahydro-2H-thiopyran-4-carboxamide 1,1-dioxide]: the results for the IC50 at HDAC1, on HDAC5 and at HDAC8 were 1.1 µM, 8.3 µM and 6.3 µM, respectively.
In the same order, the values of `Cc1cncnc1OCc1ccc(-c2noc(C(F)(F)F)n2)c(F)c1` [Example 244, 4-({3-fluoro-4-[5-(trifluoromethyl)-1,2,4-oxadiazol-3-yl]phenyl}methoxy)-5-methylpyrimidine] are 3.3 µM, 0.13 µM and 1.9 µM.
In the same order, the values of `Nc1cccnc1COCc1ccc(-c2noc(C(F)(F)F)n2)c(F)c1` [Example 252, 2-[({3-fluoro-4-[5-(trifluoromethyl)-1,2,4-oxadiazol-3-yl]phenyl}methoxy)methyl]pyridin-3-amine] are 2.6 µM, 0.12 µM and 4.5 µM.
In the case of `Fc1cc(CNc2ccc3ccncc3c2)ccc1-c1noc(C(F)(F)F)n1` [Example 254, N-({3-fluoro-4-[5-(trifluoromethyl)-1,2,4-oxadiazol-3-yl]phenyl}methyl)isoquinolin-7-amine], the IC50 at HDAC1 is 1.6 µM; at HDAC5, 0.14 µM; on HDAC8, 45 µM.
In the same order, the values of `FC(F)(F)c1nc(-c2ccc(N3CCOCC3c3ccccc3Cl)nc2)no1` (stereo not drawn) [Example 130, 3-(2-chlorophenyl)-4-(5-(5-(trifluoromethyl)-1,2,4-oxadiazol-3-yl)pyridin-2-yl)morpholine] are 0.48 µM, 0.074 µM and 1.5 µM.
In the same order, the values of `Fc1cc(COc2ccccc2)ccc1-c1noc(C(F)(F)F)n1` [Example 172, 3-(2-Fluoro-4-(phenoxymethyl)phenyl)-5-(trifluoromethyl)-1,2,4-oxadiazole] are 45 µM, 0.76 µM and 45 µM.
For `O=C1OC[C@@H](c2ccccc2)N1c1cc(F)c(-c2noc(C(F)(F)F)n2)cc1F` [Example 16, (R)-3-(2,5-Difluoro-4-(5-(trifluoromethyl)-1,2,4-oxadiazol-3-yl)phenyl)-4-phenyloxazolidin-2-one], in that order: 1 µM, 0.019 µM and 6 µM.
Consider `CCCC(=O)NC(Cc1ccc(-c2noc(C(F)(F)F)n2)cn1)c1cccc(C(F)(F)F)c1` (racemic) [Example 479, N-(2-{5-[5-(trifluoromethyl)-1,2,4-oxadiazol-3-yl]pyridin-2-yl}-1-[3-(trifluoromethyl)phenyl]ethyl)butanamide], for which the results for the IC50 at HDAC1, on HDAC5 and at HDAC8 were 0.61 µM, 0.44 µM and 45 µM, respectively.

The values above are taken from US11066396B2 (priority 2016, dated 2021).
